Laboratory results as given in US20260184687A1, “DIHYDROINDENE DERIVATIVES AS MALT1 INHIBITORS” (C4X Discovery Limited, priority 2022, published 2026).

Assays:
[1] = tested on: IL-2 release from stimulated Jurkat cells; assay: Human IL-2 Release Phenotypic Assay (Assay 3); type: cell-based; conditions: Homo sapiens, Jurkat, 48 h, Jurkat cells (clone E6-1), 200 ng/mL PMA + 300 ng/mL ionomycin, IL-2 by ELISA
In short: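 IC50 values were fitted by 4-parameter non-linear regression to IL-2 release from Jurkat E6-1 cells. Those cells were stimulated for 48 h with PMA (200 ng/mL) plus ionomycin (300 ng/mL) after a 30-min compound pre-incubation at half-log doses in 0.5% DMSO. Cells had been plated at 50 000/well overnight at 37° C.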

[2] = molecular target: MALT1-GS-Ub (6-His-hMALT-1 residues 339-715 fused to ubiquitin) (Homo sapiens, UniProt Q9UDY8); assay: biochemical;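 also: in vitro MALT1 protease assay: enzyme preincubated with compound 30 min at room temperature, then cleavage of fluorogenic Ac-LVSR-AMC substrate (100 µM) followed by fluorescence every 15 min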
Sequence of MALT1-GS-Ub (6-His-hMALT-1 residues 339-715 fused to ubiquitin) (Q9UDY8 with tags, fused parts or gaps limits assumed): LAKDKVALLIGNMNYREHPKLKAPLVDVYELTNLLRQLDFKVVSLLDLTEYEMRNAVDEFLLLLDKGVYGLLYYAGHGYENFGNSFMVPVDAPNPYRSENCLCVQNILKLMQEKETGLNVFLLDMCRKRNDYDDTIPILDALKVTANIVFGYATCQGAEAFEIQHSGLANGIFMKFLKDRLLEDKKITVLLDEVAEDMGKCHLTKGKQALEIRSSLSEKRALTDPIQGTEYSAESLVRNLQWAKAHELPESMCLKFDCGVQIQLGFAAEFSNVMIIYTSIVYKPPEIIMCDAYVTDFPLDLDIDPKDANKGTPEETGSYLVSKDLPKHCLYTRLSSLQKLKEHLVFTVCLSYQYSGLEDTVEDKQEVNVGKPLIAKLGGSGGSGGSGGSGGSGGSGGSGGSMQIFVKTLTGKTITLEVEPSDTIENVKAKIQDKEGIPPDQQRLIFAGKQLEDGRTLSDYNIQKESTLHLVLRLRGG
Experimental: MALT1 protease activity was assessed in vitro by measuring the cleavage of a fluorogenic tetrapeptide substrate.
A protein (MALT1-GS-Ub) comprising 6-His-hMALT-1 (residues 339-715), fused to ubiquitin with an 8×GGS linker, was expressed in E. coli, and purified using chitin resin to remove contaminants followed by affinity chromatography purification and size-exclusion chromatography, according to standard protocols.
Briefly, MALT1-GS-Ub (300-600 nM) was incubated with substrate (Ac-LVSR-AMC, 100 μM) in reaction buffer comprising 50 mM HEPES (pH7.0), 25 mM KCl, 0.1% (v/v) CHAPS and 1 mM TCEP.
Test compounds dissolved in DMSO were dispensed into assay plates (384-well, black, shallow ProxiPlates). 7 μl enzyme solution was added and incubated at room temperature for 30 minutes to allow compound binding to occur. 2 μl substrate solution was then added and the fluorescence (excitation 360 nm, emission 460 nm) read every 15 minutes using a suitable plate reader. Final assay DMSO concentration was 1%. […] IC50 values were calculated using GraphPad Prism using a 4-parameter non-linear regression curve fit.

FL hMALT1 enzyme = molecular target: T1, FL hMALT1 enzyme (Homo sapiens, UniProt Q9UDY8); assay: biochemical;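 also: Cell-free protease assay: enzyme preincubated with compound 30 min at room temperature, then cleavage of fluorogenic Ac-LVSR-AMC substrate (100 µM) tracked by fluorescence (ex 360/em 460 nm)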
T1 sequence (Q9UDY8 1-824): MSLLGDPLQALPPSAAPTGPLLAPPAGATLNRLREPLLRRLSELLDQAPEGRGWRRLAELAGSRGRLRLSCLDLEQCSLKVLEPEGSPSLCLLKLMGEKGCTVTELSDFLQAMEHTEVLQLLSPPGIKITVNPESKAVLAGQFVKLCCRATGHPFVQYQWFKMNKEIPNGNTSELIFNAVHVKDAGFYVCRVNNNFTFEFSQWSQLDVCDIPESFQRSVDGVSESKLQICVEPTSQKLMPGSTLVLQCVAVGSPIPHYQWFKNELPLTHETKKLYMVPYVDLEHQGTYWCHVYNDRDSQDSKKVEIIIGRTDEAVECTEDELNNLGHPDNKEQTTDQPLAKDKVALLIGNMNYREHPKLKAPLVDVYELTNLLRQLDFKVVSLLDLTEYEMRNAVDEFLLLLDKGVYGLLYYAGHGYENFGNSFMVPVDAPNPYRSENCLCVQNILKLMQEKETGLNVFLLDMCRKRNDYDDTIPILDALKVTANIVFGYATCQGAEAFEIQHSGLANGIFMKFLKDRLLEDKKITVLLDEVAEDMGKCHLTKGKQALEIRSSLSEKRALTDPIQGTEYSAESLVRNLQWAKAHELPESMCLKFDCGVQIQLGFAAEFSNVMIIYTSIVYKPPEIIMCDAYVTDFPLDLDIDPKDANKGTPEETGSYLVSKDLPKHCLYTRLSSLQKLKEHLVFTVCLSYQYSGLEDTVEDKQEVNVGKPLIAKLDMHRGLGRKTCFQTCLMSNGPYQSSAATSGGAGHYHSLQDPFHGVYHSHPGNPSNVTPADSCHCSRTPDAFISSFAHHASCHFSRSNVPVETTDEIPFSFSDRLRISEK

SMILES | IC50 [1] [nM] | IC50 [2] [nM] | IC50 (FL hMALT1 enzyme) [nM]
CN(C(=O)CCCC(=O)O)[C@@H](c1ccc(NC2Cc3ccccc3C2(C)C)cc1)C(F)(F)F (single isomer, unassigned) [Example 49] | 4690 | 260 | 
CN(C(=O)c1cnon1)[C@@H](c1ccc(NC2Cc3ccccc3C2(C)C)cc1)C(F)(F)F (single isomer, unassigned) [Example 51] |  | 930 | 
CN(C(=O)C1CNC1)C(c1ccc(NC2Cc3ccccc3C2(C)C)cn1)C(F)(F)F (single isomer, unassigned) [Example 83, N-(1-(5-((1,1-Dimethyl-2,3-dihydro-1H-inden-2-yl)amino)pyridin-2-yl)-2,2,2-trifluoroethyl)-N-methylazetidine-3-carboxamide] |  | 16000 | > 3000
CN(C(=O)C1CNC1)C(c1ccc(NC2Cc3ccccc3C2(C)C)cn1)C(F)(F)F (single isomer, unassigned) [Example 86, N-(1-(5-((1,1-Dimethyl-2,3-dihydro-1H-inden-2-yl)amino)pyridin-2-yl)-2,2,2-trifluoroethyl)-N-methylazetidine-3-carboxamide] |  | 11000 | > 3000
CN1CC(C(=O)N(C)C(c2ccc(NC3Cc4ccccc4C3(C)C)cn2)C(F)(F)F)C1 (single isomer, unassigned) [Example 90, N-(1-(5-((1,1-Dimethyl-2,3-dihydro-1H-inden-2-yl)amino)pyridin-2-yl)-2,2,2-trifluoroethyl)-N,1-dimethylazetidine-3-carboxamide] |  | 81000 | > 3000
CN1CC(C(=O)N(C)C(c2ccc(NC3Cc4ccccc4C3(C)C)cn2)C(F)(F)F)C1 (single isomer, unassigned) [Example 91, N-(1-(5-((1,1-Dimethyl-2,3-dihydro-1H-inden-2-yl)amino)pyridin-2-yl)-2,2,2-trifluoroethyl)-N,1-dimethylazetidine-3-carboxamide] |  | 12000 | > 3000
CN(C(=O)c1cc[nH]c(=O)c1)C(c1ccc(NC2Cc3ccccc3C2(C)C)cn1)C(F)(F)F (single isomer, unassigned) [Example 99, N-(1-(5-((1,1-Dimethyl-2,3-dihydro-1H-inden-2-yl)amino)pyridin-2-yl)-2,2,2-trifluoroethyl)-N-methyl-2-oxo-1,2-dihydropyridine-4-carboxamide] |  | 26000 | > 3000
CN(C(=O)[C@@H]1CC(=O)N1)[C@@H](c1ccc(N[C@H]2Cc3ccccc3C2(C)C)cn1)C(F)(F)F [Example 165, (S)—N—((S)-1-(5-(((S)-1,1-Dimethyl-2,3-dihydro-1H-inden-2-yl)amino)pyridin-2-yl)-2,2,2-trifluoroethyl)-N-methyl-4-oxoazetidine-2-carboxamide] | 450 |  | 87
CC(=O)N[C@H]1CC[C@@H](C(=O)N(C)[C@@H](c2ccc(N[C@H]3Cc4ccccc4C3(C)C)cn2)C(F)(F)F)C1 [Example 172, (1R,3S)-3-Acetamido-N—((S)-1-(5-(((S)-1,1-dimethyl-2,3-dihydro-1H-inden-2-yl)amino)pyridin-2-yl)-2,2,2-trifluoroethyl)-N-methylcyclopentane-1-carboxamide] | 490 |  | 71
CNC(=O)C12CC(C(=O)N(C)[C@@H](c3ccc(N[C@H]4Cc5ccccc5C4(C)C)cn3)C(F)(F)F)(C1)C2 [Example 185, N^1—((S)-1-(5-(((S)-1,1-Dimethyl-2,3-dihydro-1H-inden-2-yl)amino)pyridin-2-yl)-2,2,2-trifluoroethyl)-N^1,N^3-dimethylbicyclo[1.1.1]pentane-1,3-dicarboxamide] | 300 |  | 42
CC(=O)N[C@@H]1CC[C@H](C(=O)N(C)[C@@H](c2ccc(N[C@H]3Cc4ccccc4C3(C)C)cn2)C(F)(F)F)C1 [Example 187, (1,3-cis)-3-Acetamido-N—((S)-1-(5-(((S)-1,1-dimethyl-2,3-dihydro-1H-inden-2-yl)amino)pyridin-2-yl)-2,2,2-trifluoroethyl)-N-methylcyclobutane-1-carboxamide] | 450 |  | 94
CN(C(=O)C12CC(NS(C)(=O)=O)(C1)C2)[C@@H](c1ccc(N[C@H]2Cc3ccccc3C2(C)C)cn1)C(F)(F)F [Example 233, N—((S)-1-(5-(((S)-1,1-dimethyl-2,3-dihydro-1H-inden-2-yl)amino)pyridin-2-yl)-2,2,2-trifluoroethyl)-N-methyl-3-(methylsulfonamido)bicyclo[1.1.1]pentane-1-carboxamide] | 170 |  | 20
CN(C(=O)C12CC(NS(C)(=O)=O)(C1)C2)[C@@H](c1ccc(N[C@H]2Cc3ccc(Cl)cc3C2)cn1)C(F)(F)F [Example 299, N—((S)-1-(5-(((S)-5-Chloro-2,3-dihydro-1H-inden-2-yl)amino)pyridin-2-yl)-2,2,2-trifluoroethyl)-N-methyl-3-(methylsulfonamido)bicyclo[1.1.1]pentane-1-carboxamide] | 430 |  | 94

Further lines, results first:

IC50 [1] [nM] | IC50 [2] [nM] | IC50 (FL hMALT1 enzyme) [nM] | SMILES
 | 6860 | > 3000 | CN(C(=O)C1CNC1)C(c1ccc(NC2Cc3ccccc3C2(C)C)nc1)C(F)(F)F (single isomer, unassigned) [Example 89, N-(1-(6-((1,1-Dimethyl-2,3-dihydro-1H-inden-2-yl)amino)pyridin-3-yl)-2,2,2-trifluoroethyl)-N-methylazetidine-3-carboxamide]
 | 17000 | > 3000 | CN1CC(C(=O)N(C)C(c2ccc(NC3Cc4ccccc4C3(C)C)nc2)C(F)(F)F)C1 (single isomer, unassigned) [Example 94, N-(1-(6-((1,1-Dimethyl-2,3-dihydro-1H-inden-2-yl)amino)pyridin-3-yl)-2,2,2-trifluoroethyl)-N,1-dimethylazetidine-3-carboxamide]
 | 16000 | > 3000 | CN(C(=O)c1cc[nH]c(=O)c1)C(c1ccc(NC2Cc3ccccc3C2(C)C)cn1)C(F)(F)F (single isomer, unassigned) [Example 97, N-(1-(5-((1,1-Dimethyl-2,3-dihydro-1H-inden-2-yl)amino)pyridin-2-yl)-2,2,2-trifluoroethyl)-N-methyl-2-oxo-1,2-dihydropyridine-4-carboxamide]
 | 2710 |  | CN(C(=O)OC1CN(C(=O)OC(C)(C)C)C1)[C@@H](c1ccc(NC2Cc3ccccc3C2(C)C)cc1)C(F)(F)F (stereo partly drawn) [Example 59, tert-Butyl 3-((((1S)-1-(4-((1,1-dimethyl-2,3-dihydro-1H-inden-2-yl)amino)phenyl)-2,2,2-trifluoroethyl)(methyl)carbamoyl)oxy)azetidine-1-carboxylate]
230 |  | 21 | CN(C(=O)[C@H]1CC[C@@H](NS(C)(=O)=O)C1)[C@@H](c1ccc(N[C@H]2Cc3ccccc3C2(C)C)cn1)C(F)(F)F [Example 221, (1S,3R)—N—((S)-1-(5-(((S)-1,1-Dimethyl-2,3-dihydro-1H-inden-2-yl)amino)pyridin-2-yl)-2,2,2-trifluoroethyl)-N-methyl-3-(methylsulfonamido)cyclopentane-1-carboxamide]
360 |  | 170 | CN(C(=O)[C@H]1CCC(=O)NC1)[C@@H](c1ccc(N[C@H]2Cc3ccc(Cl)cc3C2)cn1)C(F)(F)F [Example 297, (S)—N—((S)-1-(5-(((S)-5-Chloro-2,3-dihydro-1H-inden-2-yl)amino)pyridin-2-yl)-2,2,2-trifluoroethyl)-N-methyl-6-oxopiperidine-3-carboxamide]
